Experimental data as given in patent publication US7449466B2, “Cyclic aminophenyl sulfamate derivative” (Aska Pharmaceutical Co., Ltd., priority 2003, dated 2008).

Key:
MCF-7 cells = experiment: MCF-7 cell proliferation measurement (MTT) for examining estrogenic activity; assay type: cell-based, human; conditions: 4 days, 570 nm
Method: (3) MCF-7 Cell Proliferation Measurement for Examining Estrogenic Activity:
Stimulation of MCF-7 cell proliferation induced by estrogenic activity of each test compound was measured.
MCF-7 cells were cultured in 10% fetal bovine serum (FBS)-containing RPMI 1640 medium which was free from Phenol Red, using a 75 cm^2 culture flask. Then the medium was changed to RPMI 1640 medium containing 10% of FBS from which emdogenous steroid had been eliminated by charcoal treatment but containing no Phenol Red. Renewing the medium every two days, the culture was continued for 4 days. By this step estrogen was removed from the MCF-7 cells.
The MCF-7 cells were seeded on 96-well plates, 2,000 cells per well, and cultured for 24 hours to immobilize the cells on the plate. After the cell immobilization, the medium in each well was changed to RPMI 1640 medium containing 10^−6M test compound and 10% of charcoal-treated FBS but containing no Phenol Red, and the culture was continued for further 4 days, during which the medium was changed every day to one newly prepared before the use. Also control wells to which no test compound was added were provided.
After the end of the culture, the cell proliferation was measured by MTT (3-(4,5-dimethylthiazol-2-yl)-2,5-diphenyl-2H-tetrazolium bromide; Sigma-Aldrich Japan Co.) method. That is, an MTT solution as dissolved in PBS at a concentration of 5 mg/mL was added to the 96-well plate accommodating the cells, at a rate of 10 μL/well, followed by 2 hours' incubation at 37° C. After the end of the incubation, the medium was removed and the formazan which was taken into the cells and changed was dissolved with 100 μL of dimethylsulfoxide. Absorbance of the formazan was measured at wavelength 570 nm, using a microplate reader, subtracting the 630 nm background.
As shown by the Table 3, absorbance values of the wells to which the test compounds were added were invariably less than 150% of the absorbance of the control well, and it was confirmed that the test compounds were free of estrogenic activity.

steroid sulfatase [1] = target: T1, steroid sulfatase (Homo sapiens, UniProt P08842); experiment: Steroid sulfatase inhibitory activity (in vitro), microsomal fraction of MCF-7 cells, [3H]estrone-3-sulfate hydrolysis; assay type: biochemical; parameters: microsomal fraction of MCF-7 human breast cancer cells was used; endogenous in cells; host or cells: MCF-7 human breast cancer cells (microsomal fraction); conditions: MCF-7 microsomal fraction, 37° C., 30 minutes; for Inhibitory rate (%) (10^−6 M): 10^−6 M test compound; for Inhibitory rate (%) (10^−7 M): 10^−7 M test compound
T1 sequence (P08842 22-583): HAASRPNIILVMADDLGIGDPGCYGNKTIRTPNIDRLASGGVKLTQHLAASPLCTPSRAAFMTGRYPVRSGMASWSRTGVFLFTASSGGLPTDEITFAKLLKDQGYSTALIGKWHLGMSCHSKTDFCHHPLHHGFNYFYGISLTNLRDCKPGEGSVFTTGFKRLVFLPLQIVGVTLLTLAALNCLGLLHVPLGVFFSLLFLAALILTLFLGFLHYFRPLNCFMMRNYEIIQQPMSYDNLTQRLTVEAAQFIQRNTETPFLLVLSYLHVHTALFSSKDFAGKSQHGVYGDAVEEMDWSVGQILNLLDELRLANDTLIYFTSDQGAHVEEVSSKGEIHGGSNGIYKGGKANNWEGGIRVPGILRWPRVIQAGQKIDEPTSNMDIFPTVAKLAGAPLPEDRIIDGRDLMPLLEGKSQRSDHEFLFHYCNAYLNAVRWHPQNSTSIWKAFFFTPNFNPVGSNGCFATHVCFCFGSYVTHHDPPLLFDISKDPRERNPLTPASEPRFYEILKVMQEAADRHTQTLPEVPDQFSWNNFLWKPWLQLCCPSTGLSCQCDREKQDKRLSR
Method: (1) Measurement of Steroid Sulfatase Inhibitory Activity (in vitro):
As the source of steroid sulfatase enzyme, microsomal fraction of MCF-7 human breast cancer cells was used.
To phosphate buffered saline (PBS), one of the test compounds, the microsomal fraction and 50 μL of 60 μM estrone-3-sulfate containing about 100 nCi of [6,7-^3H]estrone-3-sulfate (purchased from Perkin Elmer Life Sciences, Boston, Mass., USA; specific activity, 40-60 Ci/mmol) were added to make the total amount of the reaction system 150 μL, which was incubated at 37° C. for 30 minutes. After the incubation, 50 μL of PBS containing about 2 nCi of [4-^14C] estrone (purchased from Perkin Elmer Life Sciences, Boston, Mass., USA; specific activity 45-60 mCi/mmol) was added and stirred. Further 800 μL of toluene was added, and the whole system was thoroughly shaken for 30 seconds, followed by centrifugation at 2,000×g for 10 minutes to separate the acqueous phase from the organic phase. A part (400 μL) of the organic phase was taken and measured of its ^3H and ^14C contents with scintillation spectrometer.
The mass of hydrolyzed [6,7-^3H]estrone-3-sulfate was calculated from the count number of the obtained ^3H (as corrected regarding the amount of the used organic phase and the recovered amount of [4-^14C]estrone) and the specific activity of the substrate ([6,7-^3H]estrone-3-sulfate) to determine the steroid sulfatase inhibitory rate of each test compound.

steroid sulfatase [2] = target: T2, steroid sulfatase (Rattus norvegicus, UniProt P15589); experiment: Steroid sulfatase inhibitory activity (in vivo), liver and uterus of ovariectomized rats after oral dosing; conditions: 0.5 mg/kg p.o. once a day for seven days, ovariectomized female SD rats
T2 construct: The livers and uteri were separately minced with scissors and suspended in cooled PBS containing 250 mM sucrose; from tissue; host or cells: liver and uterus of ovariectomized female SD rats (2,000 x g supernatant of homogenate)
T2 sequence (P15589 20-577): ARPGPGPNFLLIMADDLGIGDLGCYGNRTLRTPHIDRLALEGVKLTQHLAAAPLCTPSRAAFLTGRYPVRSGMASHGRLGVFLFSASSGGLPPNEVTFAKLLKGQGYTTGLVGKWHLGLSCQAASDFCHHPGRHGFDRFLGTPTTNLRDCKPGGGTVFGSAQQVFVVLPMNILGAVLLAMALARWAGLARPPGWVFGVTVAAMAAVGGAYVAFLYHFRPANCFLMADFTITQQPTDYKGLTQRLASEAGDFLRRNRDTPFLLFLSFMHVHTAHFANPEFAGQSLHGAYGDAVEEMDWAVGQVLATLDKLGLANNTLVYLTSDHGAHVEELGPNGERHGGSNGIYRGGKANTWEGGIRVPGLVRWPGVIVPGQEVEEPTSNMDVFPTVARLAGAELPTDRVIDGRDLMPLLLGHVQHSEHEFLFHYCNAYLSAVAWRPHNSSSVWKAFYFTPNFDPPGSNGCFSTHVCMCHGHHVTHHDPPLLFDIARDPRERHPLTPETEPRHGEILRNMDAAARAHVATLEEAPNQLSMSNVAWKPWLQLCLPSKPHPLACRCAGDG
Method: (2) Measurement of Steroid Sulfatase Inhibitory Activity (in vivo):
To six/group of female SD rats which had undergone ovariectomy, the test compounds as each suspended in 0.5% polyoxyethylene (20) sorbitan monooleate (Tween 80) were orally administered once a day for seven days. On the next day of the last administration, the rats were sacrificed under ether anesthesia. The bodies were anatomized and their livers and uteri were extracted, which were washed with cooled PBS and stored below −70° C. The livers and uteri were separately minced with scissors and suspended in cooled PBS containing 250 mM sucrose. Each of the suspensions was homogenized with a homogenizer under cooling with ice, from which neclei and cell debris were eliminated by centrifugation at 2,000×g for 20 minutes (4° C.). Protein concentration of each of the supernatant was measured by Bradford's method (Anal. Biochem., 72, 248-254 (1976)).
To 2-200 μg of the supernatant protein mass and 50 μL of 60 μM estrone-3-sulfate containing about 100 nCi of [6,7-^3H]estrone-3-sulfate (purchased from Perkin Elmer Life Sciences, Boston, Mass., U.S.A.; specific activity, 40-60 Ci/mmol), PBS was added to make the total amount 150 μL, followed by incubation at 37° C. for 30 minutes. After the incubation, the amount of hydrolyzed [6,7-^3H]estrone-3-sulfate was calculated by a method similar to the in vitro measurement in (1) above. Also steroid sulfatase activity per mg of the protein was calculated, and from the amount of the hydrolyzed [6,7-^3H]estrone-3-sulfate and the calculated steroid sulfatase activity per mg of the protein, the tested compound's steroid sulfatase inhibitory rate was determined.

steroid sulfatase [3] = target: T1, steroid sulfatase; conditions: background statement; cited from earlier work
[4] = background statement; cited from earlier work

SMILES | Absorbance relative to that of the control well (10^−6 M, %) (MCF-7 cells) | Inhibitory rate (%) (10^−6 M) (steroid sulfatase [1]) | Inhibitory rate (%) (10^−7 M) (steroid sulfatase [1]) | Inhibitiory rate (0.5 mg/kg, p.o., %) Liver (steroid sulfatase [2]) | Inhibitiory rate (0.5 mg/kg, p.o., %) Uterus (steroid sulfatase [2]) | steroid sulfatase inhibiting activity (steroid sulfatase [3]) | estrogenic activity [4]
CCCCCCCCS(=O)(=O)N1CCN(c2cc(F)c(OS(N)(=O)=O)cc2F)CC1 [Example 52, 2,5-difluoro-4-[4-(octylsulfonyl)piperazin-1-yl]phenyl-O-sulfamate] | 112.0% | 100.0% | 99.3% |  |  |  | 
NS(=O)(=O)Oc1cc(F)c(N2CCN(S(=O)(=O)Cc3ccc(Cl)cc3)CC2)cc1F [Example 56, 4-[(4-chlorobenzylsulfonyl)piperazin-1-yl]-2,5-difluorophenyl-O-sulfamate] |  | 99.9% | 98.4% | 99.37% | 99.81% |  | 
C[C@]12CC[C@@H]3c4ccc(OS(N)(=O)=O)cc4CC[C@H]3[C@@H]1CCC2=O [EMATE, estrone-3-sulfamate] |  |  |  |  |  | potent steroid sulfatase inhibiting activity | potent estrogenic activity
NS(=O)(=O)Oc1cc(F)c(N2CCC(CCCc3ccccc3)CC2)cc1F [Example 37, 2,5-difluoro-4-[4-(3-phenylpropyl)piperidino]phenyl-O-sulfamate] | 89.5% | 98.9% | 93.6% | 99.85% | 99.95% |  | 
NS(=O)(=O)Oc1ccc(N2CCN(CCc3ccc(Cl)cc3)CC2)cc1F [Example 22, 4-[4-[2-(4-chlorophenyl)ethyl]piperazin-1-yl]-2-fluorophenyl-O-sulfamate] | 74.6% | 97.3% | 85.0% | 99.85% | 99.98% |  | 
NS(=O)(=O)Oc1cc(F)c(N2CCN(CCCC3CCCCC3)CC2)cc1F [Example 45, 4-[4-(3-cyclohexylpropyl)piperazin-1-yl]-2,5-difluorophenyl-O-sulfamate] | 91.4% | 98.5% | 88.6% | 99.09% | 99.32% |  | 
NS(=O)(=O)Oc1cc(F)c(N2CCC(CCCc3ccccc3)CC2)cc1F.O=S(=O)(O)c1ccccc1 [Example 59, 2,5-difluoro-4-[4-(3-phenylpropyl)piperidino]phenyl-O-sulfamate benzenesulfonate] | 105.3% | 99.0% | 95.4% | 100.00% | 100.00% |  | 
CCCCCCCCCCCCCC(=O)NCCc1ccc(OS(N)(=O)=O)cc1 [DU-14, 4-(2-myristoylaminoethyl)phenyl sulfamate] |  |  |  |  |  | low level of steroid sulfatase inhibiting activity | free from estrogenic activity
NS(=O)(=O)Oc1cc(F)c(N2CCN(S(=O)(=O)c3ccc(Cl)cc3)CC2)cc1F [Example 55, 4-[4-(4-chlorophenylsulfonyl)piperazin-1-yl]-2,5-difluorophenyl-O-sulfamate] | 64.6% | 100.0% | 97.5% |  |  |  | 
Cc1cc(=O)oc2cc(OS(N)(=O)=O)ccc12 [COUMATE, 4-methylcoumarin-7-sulfamate] |  |  |  |  |  | low level of steroid sulfatase inhibiting activity | free from estrogenic activity
NS(=O)(=O)Oc1cc(F)c(N2CCN(CCc3ccccc3)CC2)cc1F [Example 43, 2,5-difluoro-4-(4-phenethylpiperazin-1-yl)phenyl-O-sulfamate] | 101.1% | 98.5% | 87.0% | 99.90% | 99.98% |  | 
CC(C)(C)c1ccc(C(=O)CCCN2CCN(c3cc(F)c(OS(N)(=O)=O)cc3F)CC2)cc1 [Example 48, 4-[4-[4-(4-tert-butylphenyl)-4-oxobutyl]piperazin-1-yl]-2,5-difluorophenyl-O-sulfamate] | 112.0% | 100.0% | 95.9% |  |  |  | 
